How the values were obtained:
[1] = test system: primary human MLL leukemic cells from patient AML1; test: NSG mice transplanted with primary AML1 cells (luciferase), Olaparib and lithium carbonate diet; type: in vivo, mouse; conditions: NSG mice, leukemia driven by primary AML1 cells; Olaparib, Li diet or combination in vivo
Description: For in vivo experiment with primary AML samples, 10^5 AML1 cells transduced with firefly luciferase expressing plasmid were transplanted via by IF into the right femur of the NSG mice. Three days after transplantation, mice were supplemented with 0.4% LiCO3 containing diet and treated with Olaparib as described above for alternative day until day 21. After day 21, mice were maintained on 5 days of lithium carbonate diet and alternated with 2 days regular diet and water for 2 additional weeks. From day 21, the tumor burdens of the animals were detected using IVIS Lumina II® (Caliper) with software Living Image® Verion 4.3.1. Briefly, […] of 30 mg/mL luciferin were injected into the animals by IP. 10 minutes after injection, the animals were maintained in general anaesthesia by isoflurane and put into the IVIS chamber for photography and detection of photon emission (large binning, F=1.2, exposure time: 3 mins). The tumor burden were measured and quantified by the same software as instructed. The animals were culled when the tumor burden was 10e8 photon per second or higher.

[2] = test system: PML-RARα transformed cells; test: In vitro drug treatment of primary murine hematopoietic cells transformed by PML-RARα (RTTA); type: cell-based, mouse
Method: Transduction using concentrated viral supernatant expressing the oncogene of interest was carried out by centrifugation (spinoculation) at 800 g at 32° C. for 2 hours in the presence of 5 μg ml^-1 polybrene (Sigma-Aldrich). Cells were subsequently plated in 1% methylcellulose medium ([…]; Stem Cell Technologies) containing 20 ngml^-1 SCF, 10 ngml^-1 IL-3, 10 ngml^-1 IL-6 and 10 ngml^-1 granulocyte macrophage colony-stimulating factor (GM-CSF) and appropriate selection antibiotic. Colonies were counted after 7 days of culture and replated every 6-7 days at 5×103-1.5×10^4 cell density. Re-plating was performed weekly to generate primary cell lines for further analysis. After the third or fourth round of plating, cells were cultured in R20/20 medium (RPMI 1640, 20% FCS, 20% WEHI-conditioned medium, 2 mM L-glutamine, 100 U/ml penicillin, and 100 μg/ml streptomycin) supplemented with 20 ngml^-1 stem cell factor (SCF), 10 ngml^-1 interleukin (IL)-3, and 10 ngml^-1 IL-6 to establish cell lines. All recombinant murine cytokines were from PeprotechEC. […] Colonies were scored 6-7 days after plating. For other in vitro studies, mouse leukemic cells and primary AML cell lines were subjected to continuously Olaparib (1 μM) or LiCl (8 mM) treatment in liquid culture for whole duration as indicated in the figures or figure legends. For human leukemic cell lines, experiments were performed as described above with 5 μM Olaparib. For each assay 1×10^5 cells were collected, washed in PBS and re-suspended in Annexin V binding solution (25 mM Hepes, 140 mM KCl, 2.5 mM CaCl2 pH 7.2). After centrifugation at 500 g for five minutes the cells were incubated with the Annexin V Binding solution containing 0.25 ug/ml mouse anti Annexin V-FITC antibody (Biolegend 640906) and 1 ug/ml propidium iodide in the dark for 30 minutes at 4° C. Samples were then washed in PBS analysed at the FACS LSRII (BD Biosciences Pharmingen) with FACS Diva. Cells were cytospun onto a glass slide at 400 g for 5 minutes and then fixed for 10 minutes with 2% formaldehyde/0.2% glutaraldehyde (Sigma Aldrich). Cells were then washed with PBS, and then incubated at 37° C. for at least 2 hours with a staining solution (30 mM Citric Acid/Phosphate buffer, 5 mM K4Fe(CN)6, 5 mM K3Fe(CN)6, 150 mM NaCl, 2 mM MgCl2, 1 mg/ml X-Gal) (All reagents from Sigma-Aldrich)62. Cells were counted in at least 5 fields for each slide, for a total of over 100 cells. The percentage of senescent cells was calculated by the percentage of the number of blue cell in the field. Cells were cytospun onto a glass slide at 400 g for 5 minutes and then fixed for 30 minutes in 4% PFA and permeabilized and blocked in 0.8% Tx-100, 10% FBS/1% BSA (Sigma-Aldrich) in PBS for 15 min at room temperature. Mouse anti mouse γH2AX ([…]) (Upstate clone JBW301#05-636) and rabbit anti mouse RAD51 (Santa Cruz Biotecnology […]# sc-8349) were diluted in TBS containing 10% FBS/1% BSA and incubated overnight at 4C. […] Slides were then washed five times at 10 min each with PBS. Slides were briefly washed in water and air-dried prior to mounting with Mowiol-DABCO and a coverslip. Cells were counted in at least 5 fields for each slide, for a total of over 100 cells per condition. 1×10^5 cells were cytospun for 5 min at 300 g onto glass slides. Slides were then stained with May-Grunwald solution (Sigma-Aldrich) for 3 min at room temperature. After washing in water, they were incubated for 20 min in Giemsa solution (Sigma-Aldrich) (1:20 in water). Slides were washed again in water before being mounted with Mowiol. Cells were counted in at least 5 fields for each slide, for a total of over 100 cells per condition. NBT reduction assay were performed to determine myeloid differentiation. 0.1% of NBT (final concentration) was added to the liquid culture or semi-solid methocult and incubated at 37° C. CO2 incubator for 3 hrs and 12 hrs, respectively. […]

For `O=C(c1cc(Cc2n[nH]c(=O)c3ccccc23)ccc1F)N1CCN(C(=O)C2CC2)CC1` [Olaparib, 4-[(3-[(4-cyclopropylcarbonyl)piperazin-4-yl]carbonyl)-4-fluorophenyl]methyl(2H)-phthalazin-1-one], the “BM Engraftment (%)” value [1] was 53.23 ± 23.21%, the “Disease Latency (days; median)” value [1] was 60 days and the “Hematopoietic Liver Engraftment (%)” value [1] was 23.20 ± 20.61%. The “Hematopoietic Spleen Engraftment (%)” value [1] was 2.733 ± 4.166%, the “Liver” value [1] was 1.30 ± 0.134 g and the “Spleen” value [1] was 0.136 ± 0.029 g. For the same compound, the “suppression of colony forming ability” value ([2]; 1 uM Olaparib, methylcellulose 7 days, p<0.001) was “about 90%”, the “apoptosis (Annexin V/PI)” value ([2]; PARPi 24 hrs and 48 hrs) was “induced apoptosis” and the “senescence (β-galactosidase staining)” value ([2]; PARPi 24 hrs and 48 hrs) was “underwent significant senescence”. The “Rad51 recruitment to DNA damage sites (RAD51 foci)” value ([2]; PARPi treatment for 6 hours) was “no significant Rad51 recruitment”, the “percentage of differentiation (morphology and NBT reduction)” value ([2]; time course PARPi treatment) was “significantly increased the percentage of differentiation” and the “cells with γH2AX and Rad51 foci ratio greater than 2” value ([2]; upon PARPi treatment) was “around 80%”.
